What was measured:
[1] = tested on: murine mCherry-core RAG1 / mCherry-RAG2 V(D)J recombination in Expi293F cells; test: Extrachromosomal cell-based V(D)J recombination assay (GFP reporter, flow cytometry)
Excerpt: To further evaluate the effect of HIV-1 integrase inhibitors on RAG activity in a cellular context, we optimized a novel extrachromosomal cell-based V(D)J recombination assay, enabling assessment of multiple compounds in a dose–response manner by flow cytometry ([33]). The schematic of FL murine RAG1 and RAG2 proteins, including the active site residues (DDE motif) in RAG1 and catalytically essential core regions of each protein, are shown in Fig. 5A. The cell-based assay used vectors that encode for the core RAG1 protein (instead of the FL version) and FL murine RAG2 expressed as C-terminal fusions to mCherry, termed mCherry-core RAG1 and mCherry-RAG2. The core regions of each RAG protein are sufficient to catalyze V(D)J recombination, whereas the non-core regions function to regulate the recombination reaction ([13]). […] The consensus RSS used in this assay contains a conserved heptamer and nonamer separated by 12 or 23 non-conserved bp (12RSS and 23RSS) (Fig. 5B). A general schematic of the design for the plasmid substrate with the 12RSS and 23RSS orientations before and after V(D)J recombination is presented in Fig. 5C. More specifically, the plasmid substrate pMAXgfp-INV was designed with a 12RSS and a 23RSS flanking each side of the Pontellina plumata green fluorescent protein gene (termed maxGFP), where the gene is in an inverted orientation relative to the CMV promoter (Fig. 5D). The RSSs are positioned in a co-linear orientation, such that successful V(D)J recombination activity will result in inversion of the maxGFP gene to place it in a transcriptionally active orientation with resulting expression of GFP. Detection of GFP-expressing cells using microscopy and flow cytometry was used as a direct readout of V(D)J recombination activity.
For the recombination assay, the pMAXgfp-INV plasmid substrate and RAG1/RAG2 expression vectors (mCherry-core RAG1 and mCherry-RAG2) were transiently transfected into Expi293 cells in the absence or presence of integrase inhibitors and were assessed via microscopy and flow cytometry. The fluorescence signal from the mCherry-tag is used to assess transfection efficiency of RAG1/RAG2 vectors (Fig. 6A). We observed that transfection of the pMAXgfp-INV substrate into Expi293 cells with RAG1/RAG2 expression vectors yielded robust GFP expression 48 h post-transfection in the cells treated with vehicle control (0.1% dimethyl sulfoxide [DMSO]) (Fig. 6A). […] NU7026 inhibits double-strand break repair, which is a necessary step after DNA cleavage by RAG enzymes, and thus serves as an indirect inhibitor of RAG activity ([35]).
To test the effect of HIV-1 integrase inhibitors on V(D)J recombination activity, we optimized an extrachromosomal cell-based V(D)J recombination assay ([33]). Briefly, Expi293 cells were plated at 1 × 10^6 cells/mL in six-well plates in Gibco Expi293 expression media the day before transfection. The next day, the Expi293 cells were co-transfected with three separate vectors, pMAXgfp-INV plasmid substrate, mCherry-core RAG1, and mCherry-RAG2 expression vectors with a 4:1 transfection reagent:DNA ratio using ExpiFectamine 293 transfection reagent (Gibco). Vehicle or candidate inhibitors were added to cell samples 2 h after transfection, with six different concentrations of each inhibitor added to separate wells. Fivefold dilutions for each inhibitor starting from 10 µM were tested.
Experiments were performed with six separate inhibitors in at least three independent experiments. Two negative control conditions for recombination activity were performed in parallel and include (i) transfections in the presence of NU7026 at 30 and 50 µM (Abcam) and (ii) using a modified pMAXgfp-INV substrate containing two 12RSSs (instead of one 12RSS and one 23RSS) that is inefficiently recombined by the RAG proteins. Vehicle control (0.1% DMSO) served as the positive control for GFP expression. The fluorescence signal from the mCherry tag was used to assess transfection efficiency. […]

[2] = 5-day cytotoxicity assay with Cell Titer Glo readout, GALPC3; format: cell-based; details: human
Excerpt: (§1) Supplemental Table S2. CC50 values for INSTIs in 5- day cytotoxicity as says with Cell Titer
(§2) Expi293F GALPC3 GALHEP HUH7 MRC5 MT4 PBMC PBMC
(§3) Kidney Prostate Hepatoma Hepatoma Lung T-cell line Primary Primary
(§4) (embryonic) cancer cell cell line cell line fibroblast cells

[3] = 5-day cytotoxicity assay with Cell Titer Glo readout, GALHEPG2; format: cell-based; details: human
Excerpt: as §1, §2, §3, §4

[4] = 5-day cytotoxicity assay with Cell Titer Glo readout, HUH7; format: cell-based; details: human
Excerpt: as §1, §2, §3, §4

[5] = 5-day cytotoxicity assay with Cell Titer Glo readout, MRC5; format: cell-based; details: human
Excerpt: as §1, §2, §3, §4

[6] = 5-day cytotoxicity assay with Cell Titer Glo readout, MT4; format: cell-based; details: human
Excerpt: as §1, §2, §3, §4

[7] = 5-day cytotoxicity assay with Cell Titer Glo readout, PBMC; format: cell-based; details: CC50
Excerpt: as §1, §2, §3, §4

PBMC primary cells = test: as above; format: cell-based; details: 5 day
Excerpt: as §1, §2, §3, §4

| IC50 ([1]; compound added 2 h after transfection, read 48 h post-transfection, serum-free media, read-out: IC50 in cellular V(D)J recombination assay (% GFP-positive cells)) | SMILES | Effect on percentage of GFP-positive cells / RAG recombination ([1]; across concentrations tested, 48 h post-transfection) | CC50 at 5 day [2] | CC50 at 5 day [3] | CC50 at 5 day [4] | CC50 at 5 day [5] | CC50 at 5 day [6] | CC50 at 5 day [7] | CC50 (PBMC primary cells) |
| --- | --- | --- | --- | --- | --- | --- | --- | --- | --- |
| 41500 ± 9400 nM | O=c1cc(N2CCOCC2)oc2c1ccc1ccccc12 [NU7026] | dose-dependent decrease in percentage of GFP-positive cells |  |  |  |  |  |  |  |
|  | COc1ccc(C[C@H](N)C(=O)N[C@H]2[C@@H](O)[C@H](n3cnc4c(N(C)C)ncnc43)O[C@@H]2CO)cc1 [Puromycin] |  | 390 nM | 410 nM | 320 nM | 310 nM | 210 nM | 540 nM | 500 nM |
